Values of other authors in patent US20260308141A1, “SYNTHESIS OF ORELLANINE” (ONCORENA AB, priority 2023, published 2026).

What was measured:
human renal cancer cells [1] = system: human renal cancer cells
human renal cancer cells [2] = system: human renal cancer cells; remark: listed apart in the source

In the case of `[O-][n+]1ccc(O)c(O)c1-c1c(O)c(O)cc[n+]1[O-]` [Orellanine], the “progress of cell death” value (human renal cancer cells [1]; after transient exposure to Orellanine) is given as “progressed for many days”, the “killing of human renal cancer cells” value (human renal cancer cells [1]; cells derived from a primary tumor or from metastatic tumor tissue) is given as “killed them with great efficiency” and the “active uptake and retention by the cells (inferred from progressing cell death)” value (human renal cancer cells [2]; after transient exposure) is given as “actively taken up and retained by the cells”. The “uptake in human renal cancer cells” value (human renal cancer cells [2]; human renal cancer cells, primary or metastatic) was “taken up in human renal cancer cells”.
